Experimental data taken from patent EP4800012A1, “COMPOUND ACTING AS PARP7 INHIBITOR” (Dovetree Medicines Unus, Inc., priority 2023, dated 2025).

How the values were obtained:
[1] = molecular target: T1, PARP7 (Homo sapiens, UniProt Q7Z3E1); assay: Inhibition of the compound on PARP7 protein activity (ADP-ribosylation, chemiluminescence); assay type: biochemical; settings: Histone H1 coated plate, Biotin-Labeled NAD+, 2 h at room temperature, chemiluminescence; read-out: PARP7 activity inhibition IC50
T1 construct: purchased BPS 80527
T1 sequence (Q7Z3E1 1-657): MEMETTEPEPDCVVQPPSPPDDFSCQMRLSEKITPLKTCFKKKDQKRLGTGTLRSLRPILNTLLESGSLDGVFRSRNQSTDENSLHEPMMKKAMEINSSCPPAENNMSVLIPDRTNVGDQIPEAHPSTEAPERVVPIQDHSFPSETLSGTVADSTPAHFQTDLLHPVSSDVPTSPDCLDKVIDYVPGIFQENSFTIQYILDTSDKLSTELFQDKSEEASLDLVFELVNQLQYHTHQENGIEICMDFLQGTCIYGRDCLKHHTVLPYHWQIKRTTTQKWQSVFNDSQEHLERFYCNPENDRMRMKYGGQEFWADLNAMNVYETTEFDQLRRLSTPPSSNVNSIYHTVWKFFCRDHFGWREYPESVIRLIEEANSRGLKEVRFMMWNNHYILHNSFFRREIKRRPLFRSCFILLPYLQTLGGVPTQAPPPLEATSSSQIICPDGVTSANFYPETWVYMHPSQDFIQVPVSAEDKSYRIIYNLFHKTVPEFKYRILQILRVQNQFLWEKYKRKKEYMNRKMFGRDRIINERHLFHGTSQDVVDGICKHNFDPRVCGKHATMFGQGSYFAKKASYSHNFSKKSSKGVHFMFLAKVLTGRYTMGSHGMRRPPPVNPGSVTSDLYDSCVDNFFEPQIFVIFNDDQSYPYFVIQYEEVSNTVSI

[2] = tested on: NCI-H1373 cells; assay: Inhibition on NCI-H1373 cell proliferation (Cell-Titer-Glo); assay type: cell-based; settings: Homo sapiens, 144 h; NCI-H1373 cells, incubation for 6 days, Cell-Titer-Glo; read-out: NCI-H1373 cell proliferation inhibition IC50
[3] = molecular target: T1, PARP7; assay: PARP7 TR-FRET binding inhibition (displacement of probe RBN011147); settings: TR-FRET, Biotin-labeled probe RBN011147; read-out: PARP7 binding inhibition IC50
Protocol: The ability of the compound to substitute the probe RBN011147 (Wigle et al., 2020, Cell Chemical Biology 27, 877-887) was tested by a TR-FRET method, and IC50 was calculated to evaluate the binding ability of the compound to PARP7. […]

[4] = molecular target: PARP1 (Homo sapiens, UniProt P09874); assay: PARP1 in vitro enzyme activity inhibition (chemiluminescence assay); assay type: biochemical; settings: 5 nM of PARP1 solution, method of test example 1; read-out: PARP1 activity inhibition IC50
Chain of PARP1 (P09874 whole entry, species assumed): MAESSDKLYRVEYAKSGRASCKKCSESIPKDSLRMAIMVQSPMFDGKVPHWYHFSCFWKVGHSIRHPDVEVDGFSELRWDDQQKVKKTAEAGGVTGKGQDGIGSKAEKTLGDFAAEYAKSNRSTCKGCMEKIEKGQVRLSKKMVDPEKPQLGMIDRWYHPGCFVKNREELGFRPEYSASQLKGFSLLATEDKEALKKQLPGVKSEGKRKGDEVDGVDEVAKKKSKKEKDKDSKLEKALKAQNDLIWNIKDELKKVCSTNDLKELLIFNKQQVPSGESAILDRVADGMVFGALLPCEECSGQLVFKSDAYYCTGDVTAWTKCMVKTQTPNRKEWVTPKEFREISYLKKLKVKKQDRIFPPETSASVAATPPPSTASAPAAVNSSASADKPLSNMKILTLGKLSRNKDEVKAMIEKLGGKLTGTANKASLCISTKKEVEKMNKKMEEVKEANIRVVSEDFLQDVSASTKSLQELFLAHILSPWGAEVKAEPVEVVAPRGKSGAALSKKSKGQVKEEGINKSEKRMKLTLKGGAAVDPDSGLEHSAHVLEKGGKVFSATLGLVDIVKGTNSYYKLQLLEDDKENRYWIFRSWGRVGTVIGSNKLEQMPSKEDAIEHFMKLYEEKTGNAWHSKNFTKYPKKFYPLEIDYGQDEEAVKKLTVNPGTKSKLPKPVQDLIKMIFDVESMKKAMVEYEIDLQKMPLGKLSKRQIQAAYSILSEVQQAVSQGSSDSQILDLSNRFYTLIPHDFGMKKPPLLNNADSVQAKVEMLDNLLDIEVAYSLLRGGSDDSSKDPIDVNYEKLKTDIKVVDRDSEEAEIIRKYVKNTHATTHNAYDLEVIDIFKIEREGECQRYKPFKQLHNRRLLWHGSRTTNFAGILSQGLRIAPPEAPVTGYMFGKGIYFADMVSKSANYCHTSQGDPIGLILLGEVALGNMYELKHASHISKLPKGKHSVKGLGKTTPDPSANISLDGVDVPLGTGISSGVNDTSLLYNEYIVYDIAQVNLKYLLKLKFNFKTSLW
Protocol: (§1) Following the method in test example 1, the IC50 value of the inhibition of each compound on PARP7 activity were detected and obtained. Reference was made to the method in test example 1, except that the 6.25 nM of PARP7 solution in the ribosylation reaction step was replaced with a 5 nM of PARP1 solution or a 5 nM of PARP2. Similar to the 6.25 nM of PARP7 solution, the 5 nM of PARP1 solution and 5 nM of PARP2 solution were also formulated and obtained by using 1× Assay buffer.

[5] = molecular target: PARP2 (Homo sapiens, UniProt Q9UGN5); assay: PARP2 in vitro enzyme activity inhibition (chemiluminescence assay); assay type: biochemical; settings: 5 nM of PARP2, method of test example 1; read-out: PARP2 activity inhibition IC50
Chain of PARP2 (Q9UGN5 whole entry, species assumed): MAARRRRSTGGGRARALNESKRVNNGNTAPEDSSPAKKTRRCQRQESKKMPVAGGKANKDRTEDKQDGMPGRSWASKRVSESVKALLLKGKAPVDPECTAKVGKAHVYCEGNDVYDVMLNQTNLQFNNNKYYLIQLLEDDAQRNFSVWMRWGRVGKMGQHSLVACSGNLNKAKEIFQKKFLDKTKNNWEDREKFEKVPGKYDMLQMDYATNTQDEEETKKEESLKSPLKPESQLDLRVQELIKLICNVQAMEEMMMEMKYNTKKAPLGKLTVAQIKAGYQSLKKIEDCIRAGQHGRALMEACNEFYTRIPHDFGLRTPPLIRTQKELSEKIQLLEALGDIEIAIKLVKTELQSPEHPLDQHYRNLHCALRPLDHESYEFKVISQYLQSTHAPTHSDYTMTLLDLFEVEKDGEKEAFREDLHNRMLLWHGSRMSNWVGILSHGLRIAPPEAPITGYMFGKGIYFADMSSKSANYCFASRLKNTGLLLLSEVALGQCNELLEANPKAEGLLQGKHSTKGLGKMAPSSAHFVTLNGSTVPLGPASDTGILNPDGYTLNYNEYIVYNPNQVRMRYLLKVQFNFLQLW
Protocol: as §1

[6] = molecular target: T1, PARP7; assay: PARP7 in vitro enzyme activity inhibition (chemiluminescence assay, selectivity test); assay type: biochemical; settings: 6.25 nM of PARP7 solution, method of test example 1; read-out: PARP7 activity inhibition IC50
Protocol: as §1

Row | IC50 [1] [nM] | IC50 [2] [nM] | IC50 [3] [nM] | IC50 [4] [nM] | IC50 [5] [nM] | IC50 [6] [nM] | Structure (SMILES)
1 | < 3 | > 3000 | 30 to 100 | 3 to 10 | 30 to 100 | < 3 | O=C(NCCC[C@@H](Nc1cn[nH]c(=O)c1C(F)(F)F)C(=O)Nc1ccccn1)c1ccc(-c2ncc(C(F)(F)F)s2)cc1 [Example 244]
2 | < 3 | 1000 to 3000 | < 10 | 10 to 30 | 3 to 10 | < 3 | COC1(C)CN(C(=O)[C@@H](CCCNC(=O)c2ccc(-c3ncc(C(F)(F)F)s3)cc2)Nc2cn[nH]c(=O)c2C(F)(F)F)C1 [Example 246]
3 | 3 to 10 | > 3000 | 10 to 30 | 10 to 30 | 30 to 100 | 3 to 10 | CC1(C#N)CN(C(=O)[C@@H](CCCNC(=O)c2ccc(-c3ncc(C(F)(F)F)s3)cc2)Nc2cn[nH]c(=O)c2C(F)(F)F)C1 [Example 247]
